Test results as given in ChEMBL document CHEMBL3045002, “3,4-Dihydropyrimidin-2(1H)-one derivatives: Organocatalysed microwave assisted synthesis and evaluation of their antioxidant activity” (Med Chem Res, 2012).
Values after ≈ are worked out from the molar mass of the structure shown.

Key:
Assay type in all cases: functional
[1] = Antioxidant activity in phosphate buffer at pH 6.6 assessed as reducing power measuring conversion of potassium ferricyanide to ferrous form after 10 min by spectrophotometry
[2] = Antioxidant activity assessed as DPPH scavenging activity after 2 hr by spectrophotometry
[3] = Antioxidant activity assessed as Fe2+ chelating activity after 10 min by spectrophotometry

O=C(O)c1cc(O)c(O)c(O)c1 [GALLIC ACID]
EC50 [1]: 5.25 µg/mL (≈ 30.9 µM)
IC50 [2]: 2.06 µg/mL (≈ 12.1 µM)

COC(=O)C1=C(C)NC(=O)NC1c1ccc([N+](=O)[O-])cc1 (stereo not drawn)
EC50 [3]: 1.71 µg/mL (≈ 5.87 µM)
EC50 [1]: 170.02 µg/mL (≈ 584 µM)
IC50 [2]: 27.78 µg/mL (≈ 95.4 µM)

CCOC(=O)C1=C(C)NC(=O)NC1c1ccc(O)cc1 (stereo not drawn)
EC50 [3]: 0.89 µg/mL (≈ 3.22 µM)
EC50 [1]: 61.4 µg/mL (≈ 222 µM)
IC50 [2]: 2.71 µg/mL (≈ 9.81 µM)

COC(=O)C1=C(C)NC(=O)NC1c1ccccc1 (stereo not drawn)
EC50 [3]: 2.23 µg/mL (≈ 9.06 µM)
EC50 [1]: 97.56 µg/mL (≈ 396 µM)
IC50 [2]: 28.43 µg/mL (≈ 115 µM)

CCOC(=O)C1=C(C)NC(=O)NC1c1cccc([N+](=O)[O-])c1 (stereo not drawn)
EC50 [3]: 1.16 µg/mL (≈ 3.8 µM)
EC50 [1]: 339.06 µg/mL (≈ 1110 µM)
IC50 [2]: 27.73 µg/mL (≈ 90.8 µM)

COC(=O)C1=C(C)NC(=O)NC1c1ccc(O)cc1 (stereo not drawn)
EC50 [3]: 0.79 µg/mL (≈ 3.01 µM)
EC50 [1]: 67 µg/mL (≈ 255 µM)
IC50 [2]: 3.14 µg/mL (≈ 12 µM)

CCOC(=O)C1=C(C)NC(=O)NC1c1ccc(OC)cc1 (stereo not drawn)
EC50 [3]: 1.55 µg/mL (≈ 5.34 µM)
EC50 [1]: 171.12 µg/mL (≈ 589 µM)
IC50 [2]: 48.45 µg/mL (≈ 167 µM)

Oc1cc(O)c2c(c1)OC(c1ccc(O)c(O)c1)C(O)C2 (stereo not drawn) [CATECHIN]
EC50 [1]: 10 µg/mL (≈ 34.5 µM)
IC50 [2]: 2.12 µg/mL (≈ 7.3 µM)

COC(=O)C1=C(C)NC(=O)NC1c1cccc([N+](=O)[O-])c1 (stereo not drawn)
EC50 [3]: 1.6 µg/mL (≈ 5.49 µM)
EC50 [1]: 126.35 µg/mL (≈ 434 µM)
IC50 [2]: 27.08 µg/mL (≈ 93 µM)

Cc1cc(C(C)(C)C)c(O)c(C(C)(C)C)c1 [BUTYLATED HYDROXYTOLUENE]
EC50 [1]: 20 µg/mL (≈ 90.8 µM)
IC50 [2]: 2.18 µg/mL (≈ 9.89 µM)

CCOC(=O)C1=C(C)NC(=O)NC1c1ccccc1 (stereo not drawn)
EC50 [3]: 1.04 µg/mL (≈ 4 µM)
EC50 [1]: 158.9 µg/mL (≈ 610 µM)
IC50 [2]: 25.04 µg/mL (≈ 96.2 µM)

COC(=O)C1=C(C)NC(=O)NC1c1ccc(OC)cc1 (stereo not drawn)
EC50 [3]: 1.92 µg/mL (≈ 6.95 µM)
EC50 [1]: 206 µg/mL (≈ 746 µM)
IC50 [2]: 31.69 µg/mL (≈ 115 µM)

CCOC(=O)C1=C(C)NC(=O)NC1c1ccc([N+](=O)[O-])cc1 (stereo not drawn)
EC50 [3]: 1.86 µg/mL (≈ 6.09 µM)
EC50 [1]: 238.09 µg/mL (≈ 780 µM)
IC50 [2]: 33.29 µg/mL (≈ 109 µM)

O=C(O)CC(O)(CC(=O)O)C(=O)O [CITRIC ACID]
EC50 [3]: 0.074 µg/mL (≈ 0.385 µM)

CCOC(=O)C1=C(C)NC(=O)NC1c1ccc(O)c(OC)c1 (stereo not drawn)
EC50 [3]: 0.88 µg/mL (≈ 2.87 µM)
EC50 [1]: 49.38 µg/mL (≈ 161 µM)
IC50 [2]: 3.65 µg/mL (≈ 11.9 µM)

COC(=O)C1=C(C)NC(=O)NC1c1ccc(O)c(OC)c1 (stereo not drawn)
EC50 [3]: 0.9 µg/mL (≈ 3.08 µM)
EC50 [1]: 57.14 µg/mL (≈ 195 µM)
IC50 [2]: 5.02 µg/mL (≈ 17.2 µM)
